pEC50 and Emax data for 9 compounds are collected here from ChEMBL document CHEMBL3751692, “Synthesis and fluorescent study of 5-phenyl furocoumarin derivatives as vasodilatory agents” (Bioorg Med Chem Lett, 2016).

The nature of experiment [1]: Vasodilator activity in Sprague-Dawley rat mesentric artery assessed as reduction in of K+-induced contraction. It is filed as functional, Mesenteric artery.
The nature of experiment [2]: Vasodilator activity in Sprague-Dawley rat mesentric artery assessed as reduction in of K+-induced contraction relative to control. It is filed as functional. To be noted: Mesenteric artery.

Turning to `CCOC(=O)c1ccccc1-c1c2ccoc2c(OCCN2CCCC2)c2oc(=O)ccc12`, the pEC50 in experiment [1] came out at 5.15. Moreover, the Emax in experiment [2] worked out at 100%.
For `COC(=O)c1ccccc1-c1c2ccoc2c(OCCN2CCCC2)c2oc(=O)ccc12` the same measures were 4.71 and 102%.
Turning to `CC(C)=CCOc1c2occc2cc2ccc(=O)oc12` [PENTOSALEN], the pEC50 in experiment [1] is 4.95. In addition, the Emax in experiment [2] came to 85.6%.
For the compound `COC(=O)c1ccccc1-c1c2ccoc2c(OCCN2CCOCC2)c2oc(=O)ccc12`, in experiment [1], the pEC50 worked out at 5.59. Also, the Emax in experiment [2] stood at 100%.
The like results for `COC(=O)c1ccccc1-c1c2ccoc2c(OCCN(C)C)c2oc(=O)ccc12` were, in that order, 5.27 and 102%.
The like results for `COc1ccc(CCN(C)CCCC(C#N)(c2ccc(OC)c(OC)c2)C(C)C)cc1OC` (stereo not drawn) [VERAPAMIL] were, in that order, 7.51 and 95.8%.
The like results for `CCOC(=O)c1ccccc1-c1c2ccoc2c(OCCN2CCCCC2)c2oc(=O)ccc12` were, in that order, 5.38 and 113%.
Regarding `CCOC(=O)c1ccccc1-c1c2ccoc2c(OCCN2CCOCC2)c2oc(=O)ccc12`, the pEC50 in experiment [1] is reported as 5.81. Further, the maximum response (Emax) in experiment [2] turned out to be 113%.
Regarding `COC(=O)c1ccccc1-c1c2ccoc2c(OCCN2CCCCC2)c2oc(=O)ccc12`, the pEC50 in experiment [1] is on record as 5.35. Besides, the Emax in experiment [2] amounted to 116%.

Broadly, the pEC50 is the negative decadic logarithm of the EC50, by convention in mol/L. Usually Emax stands for the size of the effect at its maximum, as opposed to the concentration needed.
